{
  "source": "patent US7964736B2",
  "about": "“Phosphagen synthesis” (Nour Heart, Inc., priority 2004, dated 2011)",
  "key": {"isolated rabbit hearts [1]": {"test_system": "isolated rabbit hearts", "conditions": "cited from earlier work"}, "[2]": {"test_system": "canine heart, regional warm ischemia (LAD)", "experiment": "Regional warm ischemia (LAD), intact AMI model: coronary artery occlusion followed by reperfusion", "format": "in vivo", "conditions": "LAD for 1 hour, and 2 hours reperfusion"}, "chopped whole brain": {"test_system": "chopped whole brain", "conditions": "0.5% in-vitro for 90 minutes; cited from earlier work"}, "isolated rabbit hearts [3]": {"test_system": "isolated rabbit hearts", "experiment": "Isolated ischemic rabbit hearts", "format": "in vivo"}, "[4]": {"test_system": "ischemic isolated rat hearts", "conditions": "cited from earlier work"}, "[5]": {"test_system": "canine heart, regional warm ischemia (LAD)", "conditions": "cited from earlier work"}, "dog hearts": {"test_system": "dog hearts", "experiment": "Inotropic or chronotropic effect on dog hearts", "format": "in vivo", "excerpt": "As described above, although the mechanism by which CCr preserves the heart during ischemia and restores cardiac function during reperfusion is not fully understood, it is likely to be related to preservation of ATP. […] Since the breakdown of ATP is the immediate source of energy for contraction, and that contractile performance decreases precipitously and ceases when only 20% of ATP is depleted, the reported CCr preservation of over 85% of ATP (loss of only 15%) in ischemic myocardium is likely the major contributor to the observed restoration of post-ischemic myocardial contractility (see Allam M E, et al., Surg. Forum XLI:246-249, 1990, which is incorporated by reference in its entirety)."}, "[6]": {"test_system": "canine heart, hypothermic cardioplegic arrest", "conditions": "cited from earlier work; for results (restoration of cardiac function): canine"}, "[7]": {"test_system": "rat heart, global warm ischemia", "conditions": "ischemia time 7, 9, 10 min; cited from earlier work"}, "[8]": {"test_system": "rat hearts, normothermic cardioplegic arrest", "conditions": "ischemia time 40 min; cited from earlier work"}, "heart (cardioprotection)": {"test_system": "heart (cardioprotection)", "experiment": "Dose-response study of cardioprotective effect", "format": "in vivo"}, "[9]": {"conditions": "intact canine model, coronary artery occlusion followed by reperfusion"}},
  "note": "Read-outs that look alike come from different tables or passages of the source.",
  "data": [
    {"smiles": "CN(CC(=O)O)C(=N)N", "note": "[Cr, creatine, reference compound]", "values": [
      {"measurement": "ATP and CrP lost", "setting": "isolated rabbit hearts [1]; isolated ischemic rabbit hearts, control treatment", "value": "more than 95%"}
    ]},
    {"smiles": "NC1=NCCN1CC(=O)O", "note": "[CCr, 1-carboxymethyl-2-iminoimidazolidine]", "values": [
      {"measurement": "levels of ATP and CrP", "setting": "isolated rabbit hearts [1]; isolated ischemic rabbit hearts", "value": "maintained high levels"},
      {"measurement": "Nourin-1 released", "setting": "isolated rabbit hearts [1]; treated hearts versus controls", "value": "significant reduction"},
      {"measurement": "cell damage compared to control hearts", "setting": "[2]", "value": "marked reduction in cell damage"},
      {"measurement": "protection of brain tissues from ischemic injury", "setting": "chopped whole brain", "value": "protected"},
      {"measurement": "tissue damage", "setting": "isolated rabbit hearts [3]; 600 mg/kg intravenous for 2 hours prior to removing and perfusing hearts in-vitro for two hours", "value": "did not induce tissue damage"},
      {"measurement": "histology after 2 hours reperfusion (contraction bands, eosinophilic changes)", "setting": "isolated rabbit hearts [3]; 600 mg/kg intravenous, versus control hearts", "value": "only occasional small foci of contraction bands and no significant eosinophilic changes"},
      {"measurement": "protection (Nourin-1, ATP and CrP levels)", "setting": "isolated rabbit hearts [3]; hearts perfused with drug, without preinjection", "value": "no protection was observed"},
      {"measurement": "defibrillation during reperfusion", "setting": "[4]; fed rats versus control rats", "value": "spontaneously defibrillated sooner"},
      {"measurement": "reduction of myocardial ATP, exhaustion of high-energy phosphates, onset of rigor tension during cardiac ischemia", "setting": "[4]; long-term feeding (up to 3 weeks) with 1%, rats and chickens", "value": "significantly delayed"},
      {"measurement": "ATP depletion and onset of rigor", "setting": "[4]; prior feeding to rats, ischemic isolated hearts", "value": "delayed ATP depletion and the onset of rigor"},
      {"measurement": "number of hearts recovering mechanical function upon reperfusion", "setting": "[4]; treated rats compared to controls", "value": "significantly higher"},
      {"measurement": "ATP maintained, of normal non-ischemic levels", "setting": "[5]; [9]", "value": 85, "unit": "%"},
      {"measurement": "CrP maintained, of normal non-ischemic levels", "setting": "[5]; [9]", "value": 97, "unit": "%"},
      {"measurement": "loss of ATP", "setting": "[5]; [9]", "value": 15, "unit": "%"},
      {"measurement": "loss of CrP", "setting": "[5]; [9]", "value": 3, "unit": "%"},
      {"measurement": "results (restoration of cardiac function)", "setting": "[5]; ischemia time 1 hr, canine, drug prior to ischemia", "value": "Restoration"},
      {"measurement": "preservation of ATP", "setting": "[5]; ischemic myocardium", "value": "over 85%"},
      {"measurement": "inotropic or chronotropic effect", "setting": "dog hearts", "value": "no inotropic or chronotropic effect"},
      {"measurement": "defibrillation", "setting": "[6]; bypass surgery model, untreated canines required external defibrillation", "value": "defibrillated spontaneously"},
      {"measurement": "results (restoration of cardiac function)", "setting": "[6]; ischemia time 1 hr", "value": "Restoration"},
      {"measurement": "results (restoration of cardiac function)", "setting": "[6]; ischemia time 3 hrs", "value": "Restoration"},
      {"measurement": "results (restoration of cardiac function)", "setting": "[7]", "value": "Restoration"},
      {"measurement": "results (restoration of cardiac function)", "setting": "[8]", "value": "Restoration"},
      {"measurement": "cardioprotective effect", "setting": "heart (cardioprotection); 150 mg/kg", "value": "No effect"},
      {"measurement": "cardioprotective effect", "setting": "heart (cardioprotection); 300 mg/kg", "value": "strong cardioprotective effect"},
      {"measurement": "cardioprotective effect", "setting": "heart (cardioprotection); 600 mg/kg", "value": "strong cardioprotective effect"}
    ]}
  ]
}
